For assay [1], the target named is T1, parental XynA (Bacillus subtilis, UniProt P18429).
T1 construct: GH11 xylanase, mature 185 residues; activity ratio measured in culture supernatants
Briefly: RBB-xylan hydrolysis by culture supernatant, dye release at […] nm. As to conditions: 1% (m/v) D-xylose; acetate pH 5.5, 37 °C; product inhibition. The class given is biochemical.

Assay [2] has as its target T2, parental XBP (xylose binding protein, XylF) (Escherichia coli, UniProt P37387).
T2 construct: full XBP expressed in E. coli Rosetta (DE3) and purified; vector, tag and signal peptide of the purified parental XBP not described
T2 sequence (P37387 24-330): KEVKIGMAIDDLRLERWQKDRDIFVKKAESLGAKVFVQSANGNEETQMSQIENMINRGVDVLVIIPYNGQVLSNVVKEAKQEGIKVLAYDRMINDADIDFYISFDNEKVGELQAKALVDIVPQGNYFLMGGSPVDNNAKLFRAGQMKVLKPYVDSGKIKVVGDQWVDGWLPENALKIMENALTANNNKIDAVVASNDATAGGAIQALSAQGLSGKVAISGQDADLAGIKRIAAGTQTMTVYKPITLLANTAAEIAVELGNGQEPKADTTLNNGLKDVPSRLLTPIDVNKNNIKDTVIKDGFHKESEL
The experiment in a line: intrinsic tryptophan fluorescence titration. As to conditions: 20 mM Hepes pH 7.5, 25 °C; 3 µM protein.

Assay [3] has as its target T3, 2621B (XynA inserted in XBP at position 262).
T3 construct: gene xylF; single polypeptide: XBP to Q262, linker GGGG, XynA (1-185), linker GA, XBP from residue 263; pET28a, E. coli Rosetta (DE3), Ni-NTA (His tag not described); with Endo-1,4-beta-xylanase A
Briefly: intrinsic tryptophan fluorescence titration. Type of assay: binding, Escherichia coli. As to conditions: 20 mM Hepes pH 7.5, 25 °C; 3 µM protein; XBP domain site, allosteric activator of xylanase.

The target in assay [4] is T4, 2091A (XynA inserted in XBP at position 209).
T4 construct: gene xylF; single polypeptide: XBP to A209, linker AG, XynA (1-185), linker GGA, XBP from residue 210; pET28a, E. coli Rosetta (DE3), Ni-NTA (His tag not described); with Endo-1,4-beta-xylanase A
The experiment in a line: intrinsic tryptophan fluorescence titration. Particulars: 20 mM Hepes pH 7.5, 25 °C; 3 µM protein; XBP domain site, allosteric activator of xylanase. Type of assay: binding, Escherichia coli.

Usually Kd stands for the free concentration of one partner at which half of the binding sites on the other are occupied at equilibrium, for simple one-to-one binding.

In the case of `OC1OC[C@@H](O)[C@H](O)[C@H]1O` (stereo partly drawn) [D-xylose], the “+xyl/-xyl ratio^a” value in assay [1] is 0.80 ± 0.04. The values for the Kd in assay [2], in assay [3] and in assay [4] were 140 ± 30 nM, 160 ± 10 nM and 150 ± 20 nM, respectively.

These data come from paper PMC4536891, “Insertion of a xylanase in xylose binding protein results in a xylose-stimulated xylanase” (Biotechnology for Biofuels, 2015).
